Structures are written as SMILES.

Among the data in patent US20100324086A1, “COMPOUNDS AND METHODS” (Novasaid AB, priority 2008, published 2010) are IC50 values, retold here.

In this test the target is T1, recombinant, membrane-bound mPGES-1 (Homo sapiens, UniProt O14684).
T1 sequence (O14684 1-152): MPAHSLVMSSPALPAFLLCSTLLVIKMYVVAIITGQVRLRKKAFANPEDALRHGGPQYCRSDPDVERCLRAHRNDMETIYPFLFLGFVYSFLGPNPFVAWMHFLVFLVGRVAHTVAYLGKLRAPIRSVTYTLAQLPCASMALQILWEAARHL
Kind of test: Thiobarbituric acid assay (TBA-MDA assay), inhibition of mPGES-1. Particulars: remaining PGH2 measured at 535 nm. Type of test: biochemical. From the text:
Malondialdehyde is a product of lipid peroxidation and reacts with thiobarbituric acid forming a red product that absorbs at 535 nm (W. G. Niehaus, Jr and B. Samuelsson, Eur. J. Biochem 6, 126 (1968). The extinction coefficient of the TBA-MDA conjugate is 1.56×10^5 M^−1 cm^−1 (E. D. Wills. Biochem. J. 113, 315 (1969).
The method used for detection of inhibition of mPGES-1 is based on the detection of the amount of remaining PGH2. This method was described more than 20 years ago by Basevich et al (Bioorg. Khim. 1983, 9(5), 658-665.
The assay used was a modified variant and used citric acid instead of the TCA-TBA-HCl reagent described in the original assay. In this assay recombinant, membrane-bound mPGES-1 was incubated with PGH2. The reaction was stopped by adding citric acid with a final pH of 3 and a large excess of FeCl2 (20 mM) to convert any remaining PGH2 into MDA and […]. TBA reagent was finally added (0.67%) and the samples were heated at 80° C. for 30 min. The absorbance of the conjugate was measured at 535 nm.
The product of mPGES-1 (PGE2) was not measured directly in this assay, but rather the remaining substrate (PGH2) indirectly by adding FeCl2 that converts PGH2 into […] and 12-HHT. As a positive control a known mPGES-1 inhibitor, MK-886, was used and the new inhibitors were compared with the inhibition of MK-886 (% of MK-886 inhibition).
As for `O=C(NC1CCCCCC1)c1cccc(NC(=O)c2ccccc2F)c1` [Compound 63, N-(3-Cycloheptylcarbamoyl-phenyl)-2-fluorobenzamide], the IC50 is 460 nM.

Regarding `O=C(NCc1cccc(-c2ccccc2)c1)c1cccc(NC(=O)c2ccccc2C(F)(F)F)c1` [Compound 137, N-(3-Phenyl-benzyl)-3-(2-trifluoromethyl-benzoylamino)-benzamide], the IC50 was 320 nM.

Regarding `O=C(NCc1cccc2ccccc12)c1cccc(NC(=O)c2ccccc2C(F)(F)F)c1` [Compound 109, N-{3-[(Naphthalen-1-ylmethyl)-carbamoyl]-phenyl}-2-trifluoromethyl-benzamide], the IC50 is 130 nM.

Turning to `O=C(NCc1ccccc1N1CCCCC1)c1cccc(NC(=O)c2ccccc2C(F)(F)F)c1` [Compound 146, N-(2-piperidin-1-yl-benzyl)-3-(2-trifluoromethyl-benzoylamino)-benzamide], the IC50 amounted to 170 nM.

With `O=C(Nc1cccc(CNCc2ccccc2C(F)(F)F)c1)c1ccccc1C(F)(F)F` [Compound 125, 2-Trifluoromethyl-N-{3-[(2-trifluoromethyl-benzylamino)-methyl]-phenyl}-benzamide], the IC50 stood at 1800 nM.

Consider `O=C(NCc1ccccc1)c1cccc(NC(=O)c2ccccc2C(F)(F)F)c1` [Compound 141, N-(Benzyl)-3-(2-trifluoromethyl-benzoylamino)-benzamide], for which the IC50 was determined as 280 nM.

For `O=C(Nc1ccc2ncsc2c1)c1cccc(NC(=O)c2ccccc2Cl)c1` [Compound 14, 3-(2-Chloro-benzoylamino)-N-(benzothiazol-6-yl)-benzamide], the IC50 is 900 nM.

Take `O=C(Nc1ccc2ccccc2n1)c1cccc(NC(=O)c2c(Cl)cccc2Cl)c1` [Compound 40, 3-(2,6-Chloro-benzoylamino)-N-quinolin-2-yl-benzamide]: the IC50 worked out at 800 nM.

With `COc1ccccc1CNC(=O)c1cccc(NC(=O)c2ccccc2C(F)(F)F)c1` [Compound 144, N-(2-Methoxy-benzyl)-3-(2-trifluoromethyl-benzoylamino)-benzamide], the IC50 came to 840 nM.

`O=C(Nc1ccc2ccccc2n1)c1cccc(NC(=O)c2ccccc2Br)c1` [Compound 38, 3-(2-Bromo-benzoylamino)-N-quinolin-2-yl-benzamide]: the IC50 is 140 nM.

As to `O=C(Nc1cccc(C(=O)Nc2ccc3ccccc3n2)c1)c1cccc(Cl)c1` [Compound 29, 3-(3-Chloro-benzoylamino)-N-quinolin-2-yl-benzamide], the IC50 amounted to 4200 nM.

On to `O=C(Nc1ccc2ccccc2n1)c1cccc(NC(=O)c2ccccc2[N+](=O)[O-])c1` [Compound 53, 3-(2-Nitro-benzoylamino)-N-quinolin-2-yl-benzamide], for which the IC50 worked out at 500 nM.

For `COc1cccc(OC)c1C(=O)Nc1cccc(C(=O)NCc2cccc3ccccc23)c1` [Compound 108, 2,6-Dimethoxy-N-{3-[(naphthalen-1-ylmethyl)-carbamoyl]-phenyl}-benzamide], the IC50 was determined as 2200 nM.

On to `O=C(Nc1cccc(C(=O)Nc2ccc3ccccc3n2)c1)c1ccccc1` [Compound 17, 3-Benzoylamino-N-quinolin-2-yl-benzamide], for which the IC50 was 3500 nM.

`Cc1ccccc1CNC(=O)c1cccc(NC(=O)c2ccccc2C(F)(F)F)c1` [Compound 142, N-(2-Methyl-benzyl)-3-(2-trifluoromethyl-benzoylamino)-benzamide]: the IC50 is 1000 nM.

For the molecule `Cc1cccc(CNC(=O)c2cccc(NC(=O)c3ccccc3C(F)(F)F)c2)c1C` [Compound 139, N-(2,3-Dimethyl-benzyl)-3-(2-trifluoromethyl-benzoylamino)-benzamide], the IC50 stood at 75 nM.

In the case of `COc1cccc(OC)c1C(=O)Nc1cccc(C(=O)NC2CCCCCC2)c1` [Compound 65, N-(3-Cycloheptylcarbamoyl-phenyl)-2,6-dimethoxy-benzamide], the IC50 worked out at 6900 nM.

`COc1cccc(OC)c1C(=O)Nc1cccc(C(=O)N[C@H](C)c2cccc3ccccc23)c1` [Compound 92, 2,6-Dimethoxy-N-[3-((R)-1-naphthalen-1-yl-ethylcarbamoyl)-phenyl]-benzamide]: the IC50 came out at 1300 nM.

As for `O=C(NCc1cccc2ccccc12)c1cccc(NC(=O)c2c(Cl)cccc2Cl)c1` [Compound 105, 2,6-Dichloro-N-{3-[(naphthalen-1-ylmethyl)-carbamoyl]-phenyl}-benzamide], the IC50 was determined as 520 nM.

For the molecule `CCc1ccccc1C(=O)Nc1cccc(C(=O)Nc2ccc3ccccc3n2)c1` [Compound 52, 3-(2-Ethyl-benzoylamino)-N-quinolin-2-yl-benzamide], the IC50 was found to be 6900 nM.

On to `O=C(NCc1ccccc1Br)c1cccc(NC(=O)c2ccccc2C(F)(F)F)c1` [Compound 135, N-(2-Bromo-benzyl)-3-(2-trifluoromethyl-benzoylamino)-benzamide], for which the IC50 was found to be 65 nM.

Turning to `Cc1ccccc1C(=O)Nc1cccc(C(=O)NCc2cccc3ccccc23)c1` [Compound 110, N-{3-[(Naphthalen-1-ylmethyl)-carbamoyl]-phenyl}-2-methyl-benzamide], the IC50 came out at 330 nM.

`O=C(NC1CCCCCC1)c1cccc(NC(=O)c2c(Cl)cccc2Cl)c1` [Compound 55, 2,6-Dichloro-N-(3-cycloheptylcarbamoyl-phenyl)-benzamide]: the IC50 amounted to 630 nM.

Take `O=C(NCc1cccc(Br)c1)c1cccc(NC(=O)c2ccccc2C(F)(F)F)c1` [Compound 138, N-(3-Bromo-benzyl)-3-(2-trifluoromethyl-benzoylamino)-benzamide]: the IC50 is 160 nM.

`C[C@H](NC(=O)c1cccc(NC(=O)c2ccccc2Br)c1)c1cccc2ccccc12` [Compound 72, 2-Bromo-N-[3-((S)-1-naphthalen-1-yl-ethylcarbamoyl)-phenyl]-benzamide]: the IC50 is 230 nM.

As for `O=C(Nc1ccc2ccccc2n1)c1cccc(NC(=O)c2ccccc2Cl)c1` [Compound 9, 3-(2-Chloro-benzoylamino)-N-(quinolin-2-yl-)-benzamide], the IC50 was 600 nM.

Consider `O=C(NCc1ccccc1-c1ccccc1)c1cccc(NC(=O)c2ccccc2C(F)(F)F)c1` [Compound 136, N-(2-Phenyl-benzyl)-3-(2-trifluoromethyl-benzoylamino)-benzamide], for which the IC50 was 200 nM.

`O=C(NCc1ccccc1)c1cccc(NC(=O)c2ccccc2Cl)c1` [Compound 2, 3-(2-Chloro-benzoylamino)-N-benzyl-benzamide]: the IC50 turned out to be 5800 nM.

As to `CC(=O)Oc1ccccc1C(=O)Nc1cccc(C(=O)Nc2ccc3ccccc3n2)c1` [Compound 50, Acetic acid 2-[3-(quinolin-2-ylcarbamoyl)-phenylcarbamoyl]-phenyl ester], the IC50 amounted to 3000 nM.

Regarding `O=C(NCc1cccc2ccccc12)c1cccc(NC(=O)c2ccccc2I)c1` [Compound 112, 2-Iodo-N-{3-[(naphthalen-1-ylmethyl)-carbamoyl]-phenyl}-benzamide], the IC50 turned out to be 220 nM.

As for `O=C(NCc1ccccc1OC(F)(F)F)c1cccc(NC(=O)c2ccccc2C(F)(F)F)c1` [Compound 147, N-(2-Trifluoromethoxy-benzyl)-3-(2-trifluoromethyl-benzoylamino)-benzamide], the IC50 worked out at 110 nM.

Regarding `CC(=O)Oc1ccccc1C(=O)Nc1cccc(C(=O)NC2CCCCCC2)c1` [Compound 66, Acetic acid 2-(3-cycloheptylcarbamoyl-phenylcarbamoyl)-phenyl ester], the IC50 was 9900 nM.

For the molecule `O=C(NCc1cccc2ccccc12)c1cccc(NC(=O)c2ccccc2-c2cccs2)c1` [Compound 116, N-{3-[(Naphthalen-1-ylmethyl)-carbamoyl]-phenyl}-2-thiopene-2-yl-benzamide], the IC50 was 2500 nM.

`O=C(NCc1cccc2ccccc12)c1cccc(NC(=O)c2ccccc2Br)c1` [Compound 103, 2-Bromo-N-{3-[(naphthalen-1-ylmethyl)-carbamoyl]-phenyl}-benzamide]: the IC50 is 180 nM.

For `O=C(Nc1ccc2ccccc2n1)c1cccc(NC(=O)c2ccccc2C(F)(F)F)c1` [Compound 43, 3-(2-Trifluoromethyl-benzoylamino)-N-quinolin-2-yl-benzamide], the IC50 was determined as 190 nM.

Regarding `CN(C)c1ccccc1CNC(=O)c1cccc(NC(=O)c2ccccc2C(F)(F)F)c1` [Compound 145, N-(2-Dimethylamino-benzyl)-3-(2-trifluoromethyl-benzoylamino)-benzamide], the IC50 worked out at 470 nM.

For the molecule `Cc1cc(NC(=O)c2cccc(NC(=O)c3ccccc3Cl)c2)c2ccccc2n1` [Compound 3, 3-(2-Chloro-benzoylamino)-N-(2-methyl-quinolin-4-yl)-benzamide], the IC50 came to 1100 nM.

Turning to `O=C(Nc1nc2cc(Cl)ccc2o1)c1cccc(NC(=O)c2ccccc2C(F)(F)F)c1` [Compound 164, N-(3-(5-chlorobenzo[d]oxazol-2-ylcarbamoyl)phenyl)-2-(trifluoromethyl)benzamide], the IC50 was determined as 68 nM.
